In patent US12544356B2, “Combination of a chromene compound and a second active agent” (EUCLISES PHARMACEUTICALS, INC., priority 2016, dated 2026):

How the values were obtained:
[1] = tested on: intratumoral immune cells (CT26 tumors); experiment: Intratumoral immune response by flow cytometry (Example 4); assay type: in vivo, Female Envigo BALB/c (BALB/cAnNHsd) mice
Procedure: CT26 murine colon carcinoma cells were prepared as in Example 2. Female Envigo BALB/c (BALB/cAnNHsd) were inoculated with 5×10^5 CT26 cells suspended in PBS (200 μL) subcutaneously high in the axilla (just under the fore limb). […] The antibodies were administered via i.p. injection on days 3, 6, 9, 12, and 16 following inoculation. Compound A01 was given per oral daily. The mice were euthanized two hours following final dose on Day 16 and samples were prepared for testing.
Following euthanization, tumors were removed and processed to recover live cells. Red blood cells were removed. The cells were stained for surface markers and, where applicable, permeabilized for intracellular staining. The cells were washed and suspended in flow cytometry staining buffer and analyzed via flow cytometry.
The treatment had minimal effect on the relative number of Tregs (CD25^+Foxp3^+) and MDSCs (CD11b^+Ly6G^+) (as a percentage of total CD45^+ cells). […] FIG. 3 correlates CD8^+ cell percentages to tumor regression.

[2] = tested on: HT-29 xenograft murine colon carcinoma model; experiment: HT-29 xenograft tumor growth, Compound A01 with erlotinib (Example 1); assay type: in vivo, CB17SCID male mice
Procedure: HT-29 cells were cultured in medium for one week. Following digestion cells were centrifuged for 3-5 minutes at 800-1500 rpm. Cells were washed with PBS and centrifuged again under the same condition. Cells were then suspended in PBS to a final concentration of […]. 200 μL of the HT-29 cell suspension were subcutaneously injected into the mice left forelimb axillary (2.5×10^6 HT-29 cells per mouse).
48 CB17SCID male mice were implanted with 2.5×10^6 HT29 cells. Growth of the tumor was calculated for each animal using a caliper and the equation: V=π×ab^2/6.
Mouse weight and tumor volume measurements were taken on days 0, 3, 6, 9, 12, 15, 18, 21, and 22 following randomization.

[3] = tested on: CT26.WT murine colon carcinomas; experiment: CT26 tumor volume, Compound A01 vs celecoxib (Example 6); assay type: in vivo, Female Harlan Balb/c mice (BALB/cAnNHsd)
Procedure: CT26 murine colon carcinoma cells were prepared as in Example 2. Female Harlan Balb/c mice (BALB/cAnNHsd) were inoculated with 5×10^5 CT26 cells suspended in PBS (200 μL) subcutaneously high in the axilla (just under the fore limb). All mice were sorted into study groups based on caliper measurement estimation of tumor burden on Day 8 when the mean tumor burden for all animals was approximately 79 mm^3 (range of group means, 75-83 mm^3).

[4] = tested on: CT26 xenograft murine colon carcinoma model; experiment: CT26 tumor rejection, COX-2 inhibitor with anti-PD1 antibody (Example 2); assay type: in vivo, female BALB/c mice; details: up to 50 days following inoculation, COX-2 inhibitor oral daily from day 0, anti-PD-1 200 μg/mouse i.p.
Procedure: CT26.WT cells were cultured under standard conditions. They were harvested with trypsin and washed with PBS. 10^5 cells were injected into the right flank of 6 week old female BALB/c mice in total volume of 100 μL. Tumor size was quantified as the mean of the longest diameter and its perpendicular.

[5] = of total CD8+CD4− T cells, Day 16, doses 10 mg/kg
[6] = percentage of total CD45+ cells, Day 16, doses 10 mg/kg

## [2H]C([2H])([2H])c1cc(Br)cc2c1O[C@H](C(F)(F)F)C(C(=O)O)=C2 [Compound A01, (S)-6-bromo-8-trideuteromethyl-2-(trifluoromethyl)-2H-chromene-3-carboxylic acid]
[1]; [5]
  Ki67+ CD8+ T cells: 13.75%
  PD-1+ CD8+ T cells: 84.36%
[1]; [6]
  CD4+ CD8− intratumoral T cells: 1.01%
  CD8+ CD4− intratumoral T cells: 6.32%
  MDSCs (CD11b+Ly6G+): 12.09%
  Tregs (CD25+Foxp3+): 2.29%
[1]; summary of Table 12
  level of Ki67+CD8+ T cells (of total CD8+CD4− T cells), in words: reduced
  level of PD-1+CD8+ T cells (of total CD8+CD4− T cells), in words: reduced
  percentage of intratumoral CD4+CD8− T cells (of total CD45+ cells), in words: increased
  percentage of intratumoral CD8+CD4− T cells (of total CD45+ cells), in words: increased
[2]; 10 mg/kg Compound A01 alone
  suppression of tumor growth compared to vehicle: 51%
[2]; Day 0, A01 1 mg/kg oral daily
  Tumor Volume: 71.8 mm^3
[2]; Day 0, A01 10 mg/kg oral daily
  Tumor Volume: 70.1 mm^3
[2]; Day 3, A01 1 mg/kg oral daily
  Tumor Volume: 143.8 mm^3
[2]; Day 3, A01 10 mg/kg oral daily
  Tumor Volume: 145.2 mm^3
[2]; Day 6, A01 1 mg/kg oral daily
  Tumor Volume: 194.2 mm^3
[2]; Day 6, A01 10 mg/kg oral daily
  Tumor Volume: 186.9 mm^3
[2]; Day 9, A01 1 mg/kg oral daily
  Tumor Volume: 301.1 mm^3
[2]; Day 9, A01 10 mg/kg oral daily
  Tumor Volume: 235.1 mm^3
[2]; Day 12, A01 1 mg/kg oral daily
  Tumor Volume: 344.8 mm^3
[2]; Day 12, A01 10 mg/kg oral daily
  Tumor Volume: 292.1 mm^3
[2]; Day 15, A01 1 mg/kg oral daily
  Tumor Volume: 459.4 mm^3
[2]; Day 15, A01 10 mg/kg oral daily
  Tumor Volume: 309.7 mm^3
[2]; Day 18, A01 1 mg/kg oral daily
  Tumor Volume: 820.6 mm^3
[2]; Day 18, A01 10 mg/kg oral daily
  Tumor Volume: 497.5 mm^3
[2]; Day 21, A01 1 mg/kg oral daily
  Tumor Volume: 899.0 mm^3
[2]; Day 21, A01 10 mg/kg oral daily
  Tumor Volume: 592.1 mm^3
[2]; Day 22, A01 1 mg/kg oral daily
  Tumor Volume: 921.1 mm^3
[2]; Day 22, A01 10 mg/kg oral daily
  Tumor Volume: 612.1 mm^3
[2]; HT-29 xenograft, compared to vehicle and to each therapy alone
  slowing of tumor growth, comparison of therapies: superior to 50 mg/kg erlotinib
[3]; Day 8, 0.3 mg/kg
  CT26 Tumor Volume: 80 ± 6 mm^3
[3]; Day 8, 1 mg/kg
  CT26 Tumor Volume: 78 ± 5 mm^3
[3]; Day 8, 3 mg/kg
  CT26 Tumor Volume: 83 ± 3 mm^3
[3]; Day 8, 10 mg/kg
  CT26 Tumor Volume: 79 ± 6 mm^3
[3]; Day 8, 30 mg/kg
  CT26 Tumor Volume: 78 ± 5 mm^3
[3]; Day 10, 0.3 mg/kg
  CT26 Tumor Volume: 139 ± 15 mm^3
[3]; Day 10, 1 mg/kg
  CT26 Tumor Volume: 118 ± 17 mm^3
[3]; Day 10, 3 mg/kg
  CT26 Tumor Volume: 127 ± 11 mm^3
[3]; Day 10, 10 mg/kg
  CT26 Tumor Volume: 121 ± 14 mm^3
[3]; Day 10, 30 mg/kg
  CT26 Tumor Volume: 119 ± 8 mm^3
[3]; Day 13, 0.3 mg/kg
  CT26 Tumor Volume: 460 ± 73 mm^3
[3]; Day 13, 1 mg/kg
  CT26 Tumor Volume: 286 ± 48 mm^3
[3]; Day 13, 3 mg/kg
  CT26 Tumor Volume: 314 ± 49 mm^3
[3]; Day 13, 10 mg/kg
  CT26 Tumor Volume: 257 ± 35 mm^3
[3]; Day 13, 30 mg/kg
  CT26 Tumor Volume: 309 ± 34 mm^3
[3]; Day 15, 0.3 mg/kg
  CT26 Tumor Volume: 694 ± 116 mm^3
[3]; Day 15, 1 mg/kg
  CT26 Tumor Volume: 433 ± 67 mm^3
[3]; Day 15, 3 mg/kg
  CT26 Tumor Volume: 560 ± 79 mm^3
[3]; Day 15, 10 mg/kg
  CT26 Tumor Volume: 590 ± 109 mm^3
[3]; Day 15, 30 mg/kg
  CT26 Tumor Volume: 563 ± 89 mm^3
[3]; Day 17, 0.3 mg/kg
  CT26 Tumor Volume: 1123 ± 198 mm^3
[3]; Day 17, 1 mg/kg
  CT26 Tumor Volume: 689 ± 114 mm^3
[3]; Day 17, 3 mg/kg
  CT26 Tumor Volume: 834 ± 114 mm^3
[3]; Day 17, 10 mg/kg
  CT26 Tumor Volume: 758 ± 130 mm^3
[3]; Day 17, 30 mg/kg
  CT26 Tumor Volume: 897 ± 101 mm^3
[4]
  tumor rejection / tumor growth: did not prevent tumor growth
